From ChEMBL document CHEMBL1201862, “PubChem BioAssay data set” (2004)
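All cell lines were grown in 96-well plates and treated with compound for 48 hours. At the GI50, growth is halved.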 Calls of active or inactive are those of the source. No stated cut-off is given here; in the data, active = GI50 up to about 1.1 µM and inactive = higher.

Experiments:
Test in all cases: DTP human tumour cell line panel, 48 h
[1] = system: CAKI-1
[2] = system: UO-31
[3] = system: 786-0
[4] = system: OVCAR-8
[5] = system: SF-539
[6] = system: KM12
[7] = system: MDA-MB-231
[8] = system: U-251
[9] = system: HCT-15
[10] = system: CCRF-CEM
[11] = system: ACHN
[12] = system: RPMI-8226
[13] = system: MDA-N
[14] = system: OVCAR-3
[15] = system: TK-10
[16] = system: PC-3
[17] = system: SK-MEL-28
[18] = system: SF-268
[19] = system: T47D
[20] = system: SW-620
[21] = system: COLO 205
[22] = system: HOP-62
[23] = system: MCF7
[24] = system: HCC 2998
[25] = system: M14
[26] = system: SNB-19
[27] = system: A549
[28] = system: SNB-75
[29] = system: K562
[30] = system: HCT-116
[31] = system: BT-549
[32] = system: SK-MEL-2
[33] = system: SK-OV-3
[34] = system: IGROV-1
[35] = system: NCI-H460
[36] = system: SK-MEL-5
[37] = system: A498
[38] = system: UACC-257
[39] = system: MOLT-4
[40] = system: MDA-MB-435
[41] = system: RXF 393
[42] = system: Malme-3M
[43] = system: UACC-62
[44] = system: HT-29
[45] = system: EKVX
[46] = system: SN12C
[47] = system: DU-145
[48] = system: NCI/ADR-RES
[49] = system: OVCAR-5
[50] = system: OVCAR-4
[51] = system: NCI-H226
[52] = system: HL-60
[53] = system: NCI-H23
[54] = system: SR
[55] = system: SF-295
[56] = system: LOX IMVI

Measured: GI50

CCOC(=O)c1c(SCc2cc(=O)[nH]c(=O)[nH]2)n(-c2ccccc2)c(=S)n(-c2ccccc2)c1=O
inactive: [1] > 100 µM | [2] > 100 µM | [3] > 100 µM | [4] > 100 µM | [5] > 100 µM | [6] > 100 µM | [7] > 100 µM | [8] > 100 µM | [10] > 100 µM | [11] > 100 µM | [12] > 100 µM | [13] > 100 µM | [14] > 100 µM | [15] > 100 µM | [16] > 100 µM | [17] > 100 µM | [18] > 100 µM | [19] > 100 µM | [20] > 100 µM | [21] > 100 µM | [22] > 100 µM | [23] > 100 µM | [24] > 100 µM | [25] > 100 µM | [26] > 100 µM | [27] > 100 µM | [28] > 100 µM | [29] > 100 µM | [30] > 100 µM | [31] > 100 µM | [32] > 100 µM | [33] > 10 µM | [34] > 100 µM | [35] > 100 µM | [36] > 100 µM | [37] > 100 µM | [38] > 100 µM | [39] > 100 µM | [40] > 100 µM | [41] > 100 µM | [42] > 100 µM | [43] > 100 µM | [44] > 100 µM | [45] > 100 µM | [46] > 100 µM | [47] > 100 µM | [48] > 100 µM | [49] > 100 µM
> 100 µM: [9]

Oc1ccc(Br)cc1/C=N/c1c(NC2CCCCC2)oc2ccc(Br)cc12
inactive: [1] 36.8 µM | [2] 31 µM | [3] 37.8 µM | [4] 37.4 µM | [5] 61.2 µM | [6] 21 µM | [7] 61.5 µM | [8] 34.9 µM | [10] 4.1 µM | [11] 35.8 µM | [12] 7.18 µM | [13] 32.6 µM | [14] 18.2 µM | [50] 38 µM | [15] 40.6 µM | [17] 41.5 µM | [18] 33.2 µM | [19] 8.34 µM | [20] 35.3 µM | [21] > 10 µM | [22] 68.4 µM | [23] 16.2 µM | [24] 35.8 µM | [26] > 100 µM | [27] 54 µM | [28] 37.2 µM | [29] 10.7 µM | [30] 13.7 µM | [31] 25.5 µM | [51] 45.3 µM | [33] 87.5 µM | [52] 5.53 µM | [53] 15.5 µM | [34] 56.4 µM | [35] 50.5 µM | [54] 45.9 µM | [36] 40.6 µM | [37] 35.3 µM | [38] 37.8 µM | [39] 7.21 µM | [40] 35.5 µM | [41] 12.9 µM | [42] 31.7 µM | [55] 47.4 µM | [43] 38.6 µM | [56] 18.3 µM | [44] 26.8 µM | [45] 45.1 µM | [46] 44.4 µM | [47] 60.3 µM | [48] 45.5 µM | [49] 63.1 µM
25.1 µM: [9]
